The record followed here is patent US7910620B2, “Uses of neuraminidase inhibitors in infectious diseases” (priority 2005, dated 2011).

SMILES strings stand for the structures. Values joined by “and” are separate entries in the source; they are usually repeats but may differ in a detail not shown here. Equal values may be shown once. “Also recorded” adds a separate entry of the source.

Assay [1] concerns Infectious Canine Tracheobronchitis (ICT) or Kennel Cough. The class given is in vivo, dog. The following applies: for Clinical course (Days to Recover): racing greyhounds Miami, oral antibiotic plus cough suppressant, no Tamiflu, 5 days.
Assay [2] has as its system canine parvoviral enteritis. The experiment in a line: Canine parvoviral enteritis clinical cases: treatment and prevention with oral Tamiflu. In kind it is in vivo, dog. The following applies: for Outcome of exposed dogs (Days to Recover): exposed - preventive, Tamiflu 1 mg/lb once a day (AM) for 5 days. The procedure:
Table 3 represents 28 Chihuahua dogs and puppies that experienced an outbreak of canine parvoviral enteritis within their kennel. The initial treatment lasted one week and was consistent with traditional therapy. (IV fluids, antibiotics and antiemetics). During the first week, 9 puppies died and a second veterinarian was consulted.
The second veterinarian removed all IV treatment and started oral Tamiflu and AmoxiDrops on 11 puppies. This treatment was administered by the kennel staff with the veterinarian consulting by phone.
The exposed dogs received 1 mg/lb of Tamiflu once a day for 5 days.
Table 4 represents of 25 cocker spaniel dogs and puppies that experienced an outbreak of canine parvoviral enteritis within their kennel. The initial treatment lasted one week and was consistent with traditional therapy consisting of IV fluids and antibiotics, antiemetics and steroids. During this period of time, 9 puppies died, and a second veterinarian was consulted.
The second veterinarian removed all IV treatment and oral Tamiflu and sulfadimethoxine/ormetoprim (antibiotic) were the only drugs administered to 11 of the puppies. The 12th puppy was taken to the veterinarian's clinic and received IV therapy. Those puppies remaining at the kennel were treated by the kennel staff.
Table 5 represents 48 individual cases of Canine Parvoviral Enteritis treated with 1 mg/lb Tamiflu AM/PM for 10 treatments. Cases posted VIN's Infectious Dz Board by 20 veterinarians practicing in 15 states.

The subject of assay [3] is Feline Parvoviral Enteritis. The experiment in a line: Feline parvoviral enteritis cases: treatment and prevention with Tamiflu. The class given is in vivo, cat. The procedure:
Table 6 represents 5 cases of Feline Parvoviral Enteritis with Tamiflu at 1 mg/lb AM/PM for 10 treatments.

The subject of assay [4] is Raccoon Parvoenteritis/Distemper. In words: Raccoon parvoenteritis/distemper treated with Tamiflu. In kind it is in vivo. The following applies: raccoons, Tamiflu 1 mg/lb every 12 hrs for 10 treatments, no IV drugs. The procedure: Table 7 represents 5 raccoons treated with Tamiflu at 1 mg/lb given every 12 hrs for 10 treatments. Treatment administered by civilian rehabbers at their homes. Granules mixed with pancake syrup.
Raccoons represent the 5th species (cow, dog, cat, mice) in which a neuraminidase inhibitor has been successful in treating or preventing a disease associated with neuramimidase dependent bacteria. Before using Tamiflu, the hemorrhagic gastroenteritis (Parvo) in raccoon was 100% fatal. […] Treatment was administered by untrained lay personnel at the rehab centers.

Another assay has as its system E. coli. In words: Clinical Trial: Tamiflu and E. coli (case Pinga, Table 16). The class given is in vivo, feline. To be noted: for Clinical response: case Pinga, acute vomiting and hematuria, endotoxic condition. The procedure:
In Table 16, E. coli, a neuraminidase dependent bacteria, was cultured from Pinga's urine following an acute onset of vomiting and hematuria. […] 24, 2005 when […] presented in an endotoxic condition.

Regarding `CC1=C(C(=O)O)N2C(=O)[C@@H](NC(=O)[C@H](N)c3ccccc3)[C@H]2SC1` [Cephalexin], the “Clinical course (Days to Recover)” value in assay [1] was “No Change”.
With `C[C@H]1c2cccc(O)c2C(O)=C2C(=O)[C@]3(O)C(O)=C(C(N)=O)C(=O)[C@@H](N(C)C)[C@@H]3[C@@H](O)[C@@H]21` [Doxy], in assay [1], the “Clinical course (Days to Recover)” value is “No Change”.
Turning to `CCOC(=O)C1=C[C@@H](OC(CC)CC)[C@H](NC(C)=O)[C@@H](N)C1` [Tamiflu, oseltamivir], the “Days to Recover” value is 5 days and 3 days in assay [2] (Chihuahua kennel puppies, Tamiflu 1 mg/lb AM/PM oral with AmoxiDrops, no IV drugs); 3 days and 5 days and 4 days in assay [2] (Sandcastle Kennels cocker puppies, Tamiflu 1 mg/lb AM/PM oral with sulfadimethoxine/ormetoprim); 4 days and 2 days and 3 days in assay [3] (cats, Tamiflu 1 mg/lb AM/PM for 10 treatments, with IV drugs or SQ fluids); 3 days in assay [4]; 3 to 5 days in assay [1] (kennel cough, Tamiflu 1 mg/lb AM/PM, with or without oral antibiotic, no cough suppressant). In assay [2] (Chihuahua kennel, 11 puppies, oral Tamiflu and AmoxiDrops), the Survival of puppies entry is listed as “All puppies survived”. In addition, the “Outcome of exposed dogs (Days to Recover)” value in assay [2] (Chihuahua kennel) was “remained healthy”; in assay [2] (Sandcastle Kennels), “did not develop canine parvoviral enteritis; also recorded: Healthy”. Moreover, the “Outcome of exposed dog (Days to Recover)” value in assay [2] (Table 5, exposed puppy, weak parvo test, Tamiflu 1 mg/lb AM/PM) is listed as “Normal”. Also, the “Outcome of exposed kitten (Days to Recover)” value in assay [3] (exposed kitten, Tamiflu 1 mg/lb once a day (AM) for 5 days) is listed as “remained normal”. Moreover, the “Illness in holding kennels under herd health program” value in assay [1] (sick dogs 1 mg/lb AM/PM 5 days, others and new puppies 1 mg/lb once a day for 5 days) is reported as “below 5%”. Moreover, the Clinical response result with E. coli (E. coli cultured from urine) is given as “dramatic reversal”. The Observations result in the assay on E. coli (cat Pinga, E. coli cultured from urine, at 2nd treatment, Nov. 24, 2004 5:35 PM, Tamiflu 12 mg PO (1 mg/lb), with Zeniquin) was “Pinga is more alert and has not vomited”; with E. coli (cat Pinga, at 4th treatment, Nov. 25, 2004 5:30 PM, Tamiflu 12 mg PO), “Urinated, was normal yellow color . . . has”; with E. coli (cat Pinga, at 5th treatment, Nov. 26, 2004 10:30 AM, Tamiflu 12 mg PO, with Zeniquin), “exam is normal”; in the assay on E. coli (cat Pinga, at 6th treatment, Nov. 26, 2004 5 PM, Tamiflu 12 mg PO) it was “Urinated normal urine . . . passed 3 small”; with E. coli (cat Pinga, at 7th treatment, Nov. 27, 2004 10:30 AM, Tamiflu 12 mg PO, with Zeniquin) it was “more alert . . . began to eat Wellness dry”; in the assay on E. coli (cat Pinga, at 9th treatment, Nov. 28, 2004 10:30 AM, Tamiflu 12 mg PO, with Zeniquin), “almost “normal” . . . maybe weak in rear”. Also, the Observations result in the assay with E. coli (cat Pinga, at 10th (last) treatment, 5:30 PM, Tamiflu 12 mg PO) was “Pinga appears to be normal . . . this is his”. The Temp in the assay on E. coli (cat Pinga, at 3rd treatment, Nov. 25, 2004) was determined as 99.5 F; in the assay on E. coli (cat Pinga, at 4th treatment, Nov. 25, 2004) it was 98.9 F; in the assay on E. coli (cat Pinga, at 5th treatment, Nov. 26, 2004), 98.8 F; with E. coli (cat Pinga, at 6th treatment, Nov. 26, 2004), 100.6 F; in the assay on E. coli (cat Pinga, at 7th treatment, Nov. 27, 2004) it was 98.8 F; with E. coli (cat Pinga, at 9th treatment, Nov. 28, 2004), 100.1 F.
As for `CN1CCN(c2c(F)cc3c(=O)c(C(=O)O)cn4c3c2OCN4C)CC1` [Zeniquin], the Clinical response entry in the assay with E. coli (E. coli cultured from urine) was “failed to respond”. The “Clinical course under antibiotic therapy (Medical History)” value in the assay with E. coli (cat Pinga, Zeniquin 12.5 mg/day PO from Nov. 22 to Nov. 24, 2004, before Tamiflu) is “had gotten progressively worse over the course of antibiotic therapy, and now appeared to be approaching”.
